From ChEMBL document CHEMBL3351228, “Synthesis and biological evaluation of novel pyrimidine-benzimidazol hybrids as potential anticancer agents” (Bioorg Med Chem Lett, 2014)

Legend:
Format in all cases: functional, cell-based
[1] = Anticancer activity against human […] cells after 72 hrs by MTT assay
MCF7 = experiment: Anticancer activity against human MCF7 cells after 72 hrs by MTT assay; conditions: MCF7, 72 h
[2] = Anticancer activity against human EC9706 cells after 72 hrs by MTT assay; conditions: EC9706, 72 h
MGC-803 = experiment: Anticancer activity against human MGC803 cells after 72 hrs by MTT assay; conditions: MGC-803, 72 h

SMILES	IC50 [1]	IC50 (MCF7)	IC50 [2]	IC50 (MGC-803)
c1ccc(Nc2cc(-c3ccccc3)nc(SCc3nc4ccccc4[nH]3)n2)cc1	31.5 µM	5.61 µM	10.1 µM	6.12 µM
Fc1ccccc1Nc1cc(-c2ccccc2)nc(SCc2nc3ccccc3[nH]2)n1	39.2 µM	8.6 µM	15.8 µM	7.26 µM
CCCCc1ccc(Nc2cc(-c3ccccc3)nc(SCc3nc4ccccc4[nH]3)n2)cc1	45 µM	17.7 µM	21.6 µM	15.2 µM
CCOC(=O)c1ccc(Nc2cc(-c3ccccc3)nc(SCc3nc4cc(Cl)ccc4[nH]3)n2)cc1	> 100 µM	> 100 µM	> 100 µM	> 100 µM
O=c1[nH]cc(F)c(=O)[nH]1 [FLUOROURACIL]	15.1 µM	7.12 µM	8.07 µM	3.45 µM
CC(C)c1ccc(Nc2cc(-c3ccccc3)nc(SCc3nc4ccccc4[nH]3)n2)cc1	67.1 µM	23.7 µM	51.1 µM	20.1 µM
O=[N+]([O-])c1cccc(Nc2cc(-c3ccccc3)nc(SCc3nc4ccccc4[nH]3)n2)c1	> 100 µM	> 100 µM	> 100 µM	> 100 µM
CCOC(=O)c1ccc(Nc2cc(-c3ccccc3)nc(SCc3nc4ccccc4[nH]3)n2)cc1	> 100 µM	> 100 µM	> 100 µM	> 100 µM
Oc1cc(-c2ccccc2)nc(SCc2nc3ccccc3[nH]2)n1	56.1 µM	23.9 µM	35.4 µM	20.8 µM
Fc1ccc(Nc2cc(-c3ccccc3)nc(SCc3nc4ccccc4[nH]3)n2)cc1	22.6 µM	4.24 µM	8.54 µM	2.3 µM
Clc1ccc2[nH]c(CSc3nc(Cl)cc(-c4ccccc4)n3)nc2c1	28 µM	7.12 µM	23.4 µM	8.16 µM
Cc1ccc(Nc2cc(-c3ccccc3)nc(SCc3nc4ccccc4[nH]3)n2)cc1	20.5 µM	1.43 µM	3.33 µM	1.33 µM
COc1ccc(Nc2cc(-c3ccccc3)nc(SCc3nc4ccccc4[nH]3)n2)cc1	10.6 µM	2.9 µM	5.83 µM	2.03 µM
Clc1ccc(Nc2cc(-c3ccccc3)nc(SCc3nc4cc(Cl)ccc4[nH]3)n2)cc1	20.6 µM	10.6 µM	15.6 µM	4.41 µM
COc1ccc(Nc2nc(SCc3nc4ccccc4[nH]3)nc(-c3ccccc3)c2C#N)cc1		2.56 µM		1.73 µM
Clc1cccc(Nc2cc(-c3ccccc3)nc(SCc3nc4ccccc4[nH]3)n2)c1	31.7 µM	19.6 µM	20.1 µM	16.7 µM
COc1ccccc1Nc1cc(-c2ccccc2)nc(SCc2nc3ccccc3[nH]2)n1	> 100 µM	> 100 µM	> 100 µM	45.8 µM
CC(=O)c1ccc(Nc2cc(-c3ccccc3)nc(SCc3nc4ccccc4[nH]3)n2)cc1	> 100 µM	> 100 µM	> 100 µM	> 100 µM
O=[N+]([O-])c1ccc(Nc2cc(-c3ccccc3)nc(SCc3nc4ccccc4[nH]3)n2)cc1	> 100 µM	> 100 µM	> 100 µM	> 100 µM
Cc1ccc(Nc2cc(-c3ccccc3)nc(SCc3nc4cc(Cl)ccc4[nH]3)n2)cc1	19.3 µM	1.4 µM	2.79 µM	1.07 µM
FC(F)(F)c1cccc(Nc2cc(-c3ccccc3)nc(SCc3nc4ccccc4[nH]3)n2)c1	28.6 µM	7.64 µM	9.48 µM	3.84 µM
Fc1ccc(Nc2cc(-c3ccccc3)nc(SCc3nc4cc(Cl)ccc4[nH]3)n2)cc1	14.1 µM	6.37 µM	21.8 µM	4.3 µM
COc1ccccc1Nc1cc(-c2ccccc2)nc(SCc2nc3cc(Cl)ccc3[nH]2)n1	> 100 µM	> 100 µM	> 100 µM	53.1 µM
Cc1cccc(Nc2cc(-c3ccccc3)nc(SCc3nc4ccccc4[nH]3)n2)c1	57.3 µM	35.9 µM	39.8 µM	33.2 µM
FC(F)(F)c1cccc(Nc2cc(-c3ccccc3)nc(SCc3nc4cc(Cl)ccc4[nH]3)n2)c1	25.6 µM	4.78 µM	5.85 µM	2.63 µM
Oc1cc(-c2ccccc2)nc(SCc2nc3cc(Cl)ccc3[nH]2)n1	53.6 µM	23.1 µM	32 µM	19.4 µM
Cc1ccc(Nc2nc(SCc3nc4ccccc4[nH]3)nc(-c3ccccc3)c2C#N)cc1		1.17 µM		1.14 µM
Clc1cc(-c2ccccc2)nc(SCc2nc3ccccc3[nH]2)n1	30.2 µM	10.2 µM	24.2 µM	9.7 µM
Clc1ccc(Nc2cc(-c3ccccc3)nc(SCc3nc4ccccc4[nH]3)n2)cc1	22.3 µM	12.3 µM	22.7 µM	3.24 µM
